Results taken from ChEMBL document CHEMBL5532711, “Peniapyrones A-I, Cytotoxic Tricyclic-Fused α-Pyrone Derivatives from an Endophytic Penicillium brefeldianum F4a” (J Nat Prod, 2024).
pIC50: −log10 of the molar value.

Key:
Format in all cases: functional, cell-based
SNU-449 = experiment: Cytotoxicity against human SNU-449 cells assessed as inhibition of cell growth
ASPC1 = experiment: Cytotoxicity against human ASPC1 cells harboring KRAS G12D mutant assessed as inhibition of cell growth
MCF7 = experiment: Cytotoxicity against human MCF7 cells assessed as inhibition of cell growth

SMILES	pIC50 (SNU-449)	pIC50 (ASPC1)	pIC50 (MCF7)
Cc1cc2c(c(=O)o1)[C@@]1(C)C=CC(=O)[C@H]1[C@@H](OC[C@H]1C(=O)CC[C@@H]1C)O2	5.92	5.03	6.10
Cc1cc2c(c(=O)o1)[C@]1(C)C=CC(=O)[C@@H]1[C@H](OC[C@H]1C(=O)CC[C@@H]1C)O2	< 5.00	< 5.00	< 5.00
CO[C@@H]1Oc2cc(C)oc(=O)c2[C@]2(C)C=CC(=O)[C@H]12	< 5.00	< 5.00	< 5.00
C=C1[C@@H](O)C[C@H]2Oc3cc(C)oc(=O)c3[C@@]12C	5.57	5.77	6.70
CCO[C@@H]1Oc2cc(C)oc(=O)c2[C@]2(C)C=CC(=O)[C@H]12	5.85	5.66	6.15
Cc1cc2c(c(=O)o1)[C@@]1(C)C[C@H](O)C[C@H]1O2	< 5.00	5.82	5.34
Cc1cc2c(c(=O)o1)[C@]1(C)C=CC(=O)[C@@H]1[C@H](O)O2	5.23	5.77	5.28
Cc1cc2c(c(=O)o1)[C@@]1(C)[C@H](CO)[C@@H](O)C[C@H]1O2	5.06	< 5.00	5.26
Cc1cc2c(c(=O)o1)[C@@]1(C)CC(=O)C[C@H]1O2 (racemic)	< 5.00	5.54	5.00
Cc1nc(Nc2ncc(C(=O)Nc3c(C)cccc3Cl)s2)cc(N2CCN(CCO)CC2)n1 [DASATINIB ANHYDROUS]	–	5.48	< 5.00
Nc1ccn([C@@H]2O[C@H](CO)[C@@H](O)C2(F)F)c(=O)n1 [GEMCITABINE]	< 5.00	6.30	–
